Data as given in patent publication US20260125371A1, “METHOD FOR INHIBITING CLOSTRIDIOIDES DIFFICILE SPORE GERMINATION” (UNIVERSITY OF NOTRE DAME DU LAC, priority 2022, published 2026).
Values after ≈ are worked out from the molar mass of the structure shown. Where two headings read alike, the source gives them in different places.

Key:
[1] = tested on: C. difficile ATCC 43255; test: Determination of minimal-inhibitory concentrations (microdilution), C. difficile ATCC 43255; type: cell-based, Clostridioides difficile; conditions: for MIC: Clostridioides difficile
[2] = tested on: S. aureus; test: MIC against S. aureus strains; type: cell-based; conditions: S. aureus ATCC 29213, 24 h; for MIC: Staphylococcus aureus, ATCC29213, 24 h, read-out: MIC (μg/mL) 24 h
[3] = tested on: C. difficile strains; test: MIC (microdilution) against panel of 101 C. difficile strains; type: cell-based, Clostridioides difficile; conditions: Clostridioides difficile
[4] = C. difficile ATCC 43255, 48-h incubation
[5] = ATCC43255, 24 h, C. difficile ATCC 43255, 24 h, read-out: MIC (μg/mL) 24 h
[6] = ATCC43255, 48 h, C. difficile ATCC 43255, 48-h incubation, read-out: MIC (μg/mL) 48 h

## FC(F)(F)c1ccc(Oc2ccc(-c3noc(-c4cc[nH]n4)n3)cc2)cc1 [Compound 25]
[1]; [4]
  MIC (μg/mL) 48 h: >128 µg/mL
[1]; C. difficile ATCC 43255, 24 h
  MIC (μg/mL) 24 h: >128 µg/mL
[2]
  MIC (μg/mL) 24 h: >128 µg/mL

## O=C(Nc1c[nH]nc1-c1nc(-c2ccc(Oc3ccc(C(F)(F)F)cc3)cc2)no1)c1ccccc1 [Compound 44]
[1]; [4]
  MIC (μg/mL) 48 h: >128 µg/mL
[1]; C. difficile ATCC 43255, 24 h
  MIC (μg/mL) 24 h: >128 µg/mL
[2]
  MIC (μg/mL) 24 h: >128 µg/mL

## COc1ccc(-c2nc(-c3ccc(Oc4ccc(C(F)(F)F)cc4)cc3)no2)cc1[N+](=O)[O-] [Compound 22]
[1]; [4]
  MIC (μg/mL) 48 h: >128 µg/mL
[1]; C. difficile ATCC 43255, 24 h
  MIC (μg/mL) 24 h: >128 µg/mL
[2]
  MIC (μg/mL) 24 h: >128 µg/mL

## CCCCOc1ccc(-c2noc(-c3ccc(O)cc3)n2)cc1 [Compound 90, 4-(3-(4-Butoxyphenyl)-1,2,4-oxadiazol-5-yl)phenol]
[1]; [5]
  MIC: > 128 µg/mL
[1]; [6]
  MIC: > 128 µg/mL
[2]
  MIC: > 128 µg/mL

## FC(F)(F)c1ccc(Oc2ccc(-c3noc(-c4cn[nH]n4)n3)cc2)cc1 [Compound 35]
[1]; [4]
  MIC (μg/mL) 48 h: >128 µg/mL
[1]; C. difficile ATCC 43255, 24 h
  MIC (μg/mL) 24 h: >128 µg/mL
[2]
  MIC (μg/mL) 24 h: 16 µg/mL (≈ 42.9 µM)

## Cl.NCCCCc1nc(-c2ccc(OC3CCCC3)cc2)no1 [Compound 67, 4-(3-(4-(Cyclopentyloxy)phenyl)-1,2,4-oxadiazol-5-yl)butan-1-amine hydrochloride salt]
[1]; [5]
  MIC: 128 µg/mL
[1]; [6]
  MIC: 128 µg/mL
[2]
  MIC: > 128 µg/mL

## FC(F)(F)c1ccc(Oc2ccc(-c3noc(-c4c[nH]cn4)n3)cc2)cc1 [Compound 34]
[1]; [4]
  MIC (μg/mL) 48 h: 8 µg/mL (≈ 21.5 µM)
[1]; C. difficile ATCC 43255, 24 h
  MIC (μg/mL) 24 h: 8 µg/mL (≈ 21.5 µM)
[2]
  MIC (μg/mL) 24 h: 2 µg/mL (≈ 5.37 µM)

## c1cc(-c2noc(-c3ccc4c(c3)CCN4)n2)ccc1OC1CCCC1 [Compound 54, 3-(4-(Cyclopentyloxy)phenyl)-5-(indolin-5-yl)-1,2,4-oxadiazole]
[1]; [5]
  MIC: 4 µg/mL (≈ 11.5 µM)
[1]; [6]
  MIC: 8 µg/mL (≈ 23 µM)
[1]; ATCC43255, strain ATCC43255, read-out: MIC
  MIC: 2 µg/mL (≈ 5.76 µM)
[3]; ATCC43598, strain ATCC43598
  MIC: 2 µg/mL (≈ 5.76 µM)
[3]; BAA1801, strain BAA-1801
  MIC: 4 µg/mL (≈ 11.5 µM)
[3]; BAA1803, strain BAA-1803
  MIC: 2 µg/mL (≈ 5.76 µM)
[3]; BAA1804, strain BAA-1804
  MIC: 2 µg/mL (≈ 5.76 µM)
[3]; BAA1812, strain BAA-1812
  MIC: 2 µg/mL (≈ 5.76 µM)
[3]; BAA1814, strain BAA-1814
  MIC: 4 µg/mL (≈ 11.5 µM)
[3]; BAA1870, strain BAA-1870
  MIC: 4 µg/mL (≈ 11.5 µM)
[3]; strain HM-88
  MIC: 4 µg/mL (≈ 11.5 µM)
[3]; strain HM-89
  MIC: 8 µg/mL (≈ 23 µM)
[3]; strain HM-745
  MIC: 2 µg/mL (≈ 5.76 µM)
[3]; strain HM-746
  MIC: 2 µg/mL (≈ 5.76 µM)
[3]; strain HM-747
  MIC: 1 µg/mL (≈ 2.88 µM)
[3]; strain NR49292
  MIC: 8 µg/mL (≈ 23 µM)
[3]; strain NR49294
  MIC: 2 µg/mL (≈ 5.76 µM)
[3]; strain NR49302
  MIC: 4 µg/mL (≈ 11.5 µM)
[3]; strain NR49305
  MIC: 8 µg/mL (≈ 23 µM)
[3]; strain NR49310
  MIC: 4 µg/mL (≈ 11.5 µM)
[3]; strain NR49318
  MIC: 8 µg/mL (≈ 23 µM)
[3]; strain NR-13427
  MIC: 8 µg/mL (≈ 23 µM)
[3]; strain NR-13428
  MIC: 8 µg/mL (≈ 23 µM)
[3]; strain NR-13429
  MIC: 4 µg/mL (≈ 11.5 µM)
[3]; strain NR-13430
  MIC: 8 µg/mL (≈ 23 µM)
[3]; strain NR-13431
  MIC: 4 µg/mL (≈ 11.5 µM)
[3]; strain NR-13433
  MIC: 4 µg/mL (≈ 11.5 µM)
[3]; strain NR-13434
  MIC: 4 µg/mL (≈ 11.5 µM)
[3]; strain NR-13435
  MIC: 4 µg/mL (≈ 11.5 µM)
[3]; strain NR-13436
  MIC: 8 µg/mL (≈ 23 µM)
[3]; strain NR-13437
  MIC: 8 µg/mL (≈ 23 µM)
[3]; strain NR-13438
  MIC: 8 µg/mL (≈ 23 µM)
[3]; strain NR-13553
  MIC: 4 µg/mL (≈ 11.5 µM)
[3]; strain NR-32882
  MIC: 4 µg/mL (≈ 11.5 µM)
[3]; strain NR-32883
  MIC: 4 µg/mL (≈ 11.5 µM)
[3]; strain NR-32884
  MIC: 4 µg/mL (≈ 11.5 µM)
[3]; strain NR-32885
  MIC: 8 µg/mL (≈ 23 µM)
[3]; strain NR-32886
  MIC: 8 µg/mL (≈ 23 µM)
[3]; strain NR-32887
  MIC: 4 µg/mL (≈ 11.5 µM)
[3]; strain NR-32888
  MIC: 8 µg/mL (≈ 23 µM)
[3]; strain NR-32889
  MIC: 4 µg/mL (≈ 11.5 µM)
[3]; strain NR-32890
  MIC: 4 µg/mL (≈ 11.5 µM)
[3]; strain NR-32891
  MIC: 4 µg/mL (≈ 11.5 µM)
[3]; strain NR-32892
  MIC: 4 µg/mL (≈ 11.5 µM)
[3]; strain NR-32895
  MIC: 8 µg/mL (≈ 23 µM)
[3]; strain NR-32896
  MIC: 4 µg/mL (≈ 11.5 µM)
[3]; strain NR-32897
  MIC: 4 µg/mL (≈ 11.5 µM)
[3]; strain NR-32900
  MIC: 4 µg/mL (≈ 11.5 µM)
[3]; strain NR-32903
  MIC: 2 µg/mL (≈ 5.76 µM)
[3]; strain NR-32904
  MIC: 4 µg/mL (≈ 11.5 µM)
[3]; strain NR-49277
  MIC: 4 µg/mL (≈ 11.5 µM)
[3]; strain NR-49278
  MIC: 4 µg/mL (≈ 11.5 µM)
[3]; strain NR-49279
  MIC: 4 µg/mL (≈ 11.5 µM)
[3]; strain NR-49280
  MIC: 2 µg/mL (≈ 5.76 µM)
[3]; strain NR-49281
  MIC: 4 µg/mL (≈ 11.5 µM)
[3]; strain NR-49282
  MIC: 2 µg/mL (≈ 5.76 µM)
[3]; strain NR-49283
  MIC: 2 µg/mL (≈ 5.76 µM)
[3]; strain NR-49284
  MIC: 4 µg/mL (≈ 11.5 µM)
[3]; strain NR-49285
  MIC: 4 µg/mL (≈ 11.5 µM)
[3]; strain NR-49286
  MIC: 2 µg/mL (≈ 5.76 µM)
[3]; strain NR-49287
  MIC: 4 µg/mL (≈ 11.5 µM)
[3]; strain NR-49288
  MIC: 4 µg/mL (≈ 11.5 µM)
[3]; strain NR-49289
  MIC: 4 µg/mL (≈ 11.5 µM)
[3]; strain NR-49290
  MIC: 4 µg/mL (≈ 11.5 µM)
[3]; strain NR-49291
  MIC: 4 µg/mL (≈ 11.5 µM)
[3]; strain NR-49293
  MIC: 2 µg/mL (≈ 5.76 µM)
[3]; strain NR-49295
  MIC: 4 µg/mL (≈ 11.5 µM)
[3]; strain NR-49296
  MIC: 8 µg/mL (≈ 23 µM)
[3]; strain NR-49297
  MIC: 4 µg/mL (≈ 11.5 µM)
[3]; strain NR-49298
  MIC: 8 µg/mL (≈ 23 µM)
[3]; strain NR-49299
  MIC: 8 µg/mL (≈ 23 µM)
[3]; strain NR-49300
  MIC: 8 µg/mL (≈ 23 µM)
[3]; strain NR-49301
  MIC: 8 µg/mL (≈ 23 µM)
[3]; strain NR-49303
  MIC: 4 µg/mL (≈ 11.5 µM)
[3]; strain NR-49304
  MIC: 8 µg/mL (≈ 23 µM)
[3]; strain NR-49306
  MIC: 4 µg/mL (≈ 11.5 µM)
[3]; strain NR-49307
  MIC: 2 µg/mL (≈ 5.76 µM)
[3]; strain NR-49308
  MIC: 2 µg/mL (≈ 5.76 µM)
[3]; strain NR-49309
  MIC: 8 µg/mL (≈ 23 µM)
[3]; strain NR-49311
  MIC: 4 µg/mL (≈ 11.5 µM)
[3]; strain NR-49312
  MIC: 4 µg/mL (≈ 11.5 µM)
[3]; strain NR-49313
  MIC: 4 µg/mL (≈ 11.5 µM)
[3]; strain NR-49314
  MIC: 4 µg/mL (≈ 11.5 µM)
[3]; strain NR-49315
  MIC: 2 µg/mL (≈ 5.76 µM)
[3]; strain NR-49316
  MIC: 4 µg/mL (≈ 11.5 µM)
[3]; strain NR-49317
  MIC: 2 µg/mL (≈ 5.76 µM)
[3]; strain NR-49319
  MIC: 4 µg/mL (≈ 11.5 µM)
[3]; strain NR-49320
  MIC: 4 µg/mL (≈ 11.5 µM)
[3]; strain NR-49321
  MIC: 4 µg/mL (≈ 11.5 µM)
[3]; strain NR-49323
  MIC: 4 µg/mL (≈ 11.5 µM)
[3]; strain NR-49324
  MIC: 8 µg/mL (≈ 23 µM)
[3]; strain NR-49325
  MIC: 4 µg/mL (≈ 11.5 µM)
[3]; strain NR-49326
  MIC: 8 µg/mL (≈ 23 µM)
[3]; strain NR-49327
  MIC: 8 µg/mL (≈ 23 µM)
[3]; strain NR-49328
  MIC: 8 µg/mL (≈ 23 µM)
[3]; strain NR-49329
  MIC: 8 µg/mL (≈ 23 µM)
[3]; strain RMA23691
  MIC: 2 µg/mL (≈ 5.76 µM)
[3]; strain RMA23828
  MIC: 8 µg/mL (≈ 23 µM)
[3]; strain RMA24531
  MIC: 2 µg/mL (≈ 5.76 µM)
[3]; strain RMA24923
  MIC: 2 µg/mL (≈ 5.76 µM)
[3]; strain RMA26675
  MIC: 8 µg/mL (≈ 23 µM)
[3]; strain RMA27081
  MIC: 8 µg/mL (≈ 23 µM)
[3]; strain RMA27173
  MIC: 4 µg/mL (≈ 11.5 µM)
[3]; C. difficile strains of Table 4, read-out: MIC50
  MIC50: 4 µg/mL (≈ 11.5 µM)
[3]; C. difficile strains of Table 4, read-out: MIC90
  MIC90: 8 µg/mL (≈ 23 µM)

## COc1cc(-c2nc(-c3ccc(Oc4ccc(C(F)(F)F)cc4)cc3)no2)ccc1O [Compound 13]
[1]; [4]
  MIC (μg/mL) 48 h: 16 µg/mL (≈ 37.4 µM)
[1]; C. difficile ATCC 43255, 24 h
  MIC (μg/mL) 24 h: 16 µg/mL (≈ 37.4 µM)
[2]
  MIC (μg/mL) 24 h: >128 µg/mL
